pEC50, pIC50: −log10 of the molar value.
Columns and labels:
Test in all cases: cells
Set-up in all cases: species or system panel of human cancer cell lines; Eurofins OncoPanel proliferation; nuclei count by high-content fluorescence imaging, 10-point dose response
MV-4-11 = details: Homo sapiens, MV4-11, 72 h, cell count, 3 days
How it was run: (§1)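 Ten half-log concentrations from 100 μM (0.1% DMSO max) applied one day post-seeding, 3-day exposure at 37°C; untreated time-zero plate for GI50. Readout is nuclear cell count by automated fluorescence imaging, giving EC50, IC50, GI50 and 0–10 activity area.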

Hs 683 = details: Homo sapiens, Hs 683, 72 h, cell count, 3 days
How it was run: as §1

NCI-H508 = details: Homo sapiens, NCI-H508, 72 h, cell count, 3 days
How it was run: as §1

SK-LMS-1 = details: Homo sapiens, SK-LMS-1, 72 h, cell count, 3 days
How it was run: as §1

JeKo-1 = details: Homo sapiens, JeKo-1, 72 h, cell count, 3 days
How it was run: as §1

MX-1 = details: Homo sapiens, MX1, 72 h, cell count, 3 days
How it was run: as §1

DLD-1 = details: Homo sapiens, DLD-1, 72 h, cell count, 3 days
How it was run: as §1

Ramos (RA 1) = details: Homo sapiens, Ramos, 72 h, cell count, 3 days
How it was run: as §1

RPMI 8226 = details: Homo sapiens, RPMI-8226, 72 h, cell count, 3 days
How it was run: as §1

TCCSUP = details: Homo sapiens, TCC-SUP, 72 h, cell count, 3 days
How it was run: as §1

TE 381.T = details: TE 381.T, 72 h, cell count, 3 days
How it was run: as §1

A498 = details: Homo sapiens, A498, 72 h, cell count, 3 days
How it was run: as §1

SiHa = details: Homo sapiens, SiHa, 72 h, cell count, 3 days
How it was run: as §1

RL95-2 = details: Homo sapiens, RL95-2, 72 h, cell count, 3 days
How it was run: as §1

[1] = 50% of maximum possible response

pIC50 (MV-4-11; [1]): 4.88
GI50 (MV-4-11; corrected for time zero): 9.2 µM
pEC50 (MV-4-11; curve inflection point): 4.90
pIC50 (NCI-H508; [1]): 4.42
GI50 (NCI-H508; corrected for time zero): 33.5 µM
pEC50 (NCI-H508; curve inflection point): 4.42
pIC50 (SK-LMS-1; [1]): 4.57
GI50 (SK-LMS-1; corrected for time zero): 21.5 µM
pEC50 (SK-LMS-1; curve inflection point): 4.57
pIC50 (DLD-1; [1]): 4.60
GI50 (DLD-1; corrected for time zero): 23.7 µM
pEC50 (DLD-1; curve inflection point): 4.62
pIC50 (Ramos (RA 1); [1]): 4.62
GI50 (Ramos (RA 1); corrected for time zero): 21.2 µM
pEC50 (Ramos (RA 1); curve inflection point): 4.62
Compound: C[C@@H]1CC(=O)NN=C1c1ccc(NN=C(C#N)C#N)cc1 [levosimendan]
pIC50 (Hs 683; [1]): < 4.00
GI50 (Hs 683; corrected for time zero): > 100 µM
pEC50 (Hs 683; curve inflection point): 4.29
pIC50 (JeKo-1; [1]): 4.61
GI50 (JeKo-1; corrected for time zero): 20.9 µM
pEC50 (JeKo-1; curve inflection point): 4.61
pIC50 (MX-1; [1]): 4.39
GI50 (MX-1; corrected for time zero): 37 µM
pEC50 (MX-1; curve inflection point): 4.39
pIC50 (RPMI 8226; [1]): 4.60
GI50 (RPMI 8226; corrected for time zero): 17.1 µM
pEC50 (RPMI 8226; curve inflection point): 4.60
pIC50 (TCCSUP; [1]): < 4.00
GI50 (TCCSUP; corrected for time zero): 94.3 µM
pEC50 (TCCSUP; curve inflection point): < 4.00
pIC50 (TE 381.T; [1]): 4.61
GI50 (TE 381.T; corrected for time zero): 15.5 µM
pEC50 (TE 381.T; curve inflection point): 4.61
pIC50 (A498; [1]): 4.09
GI50 (A498; corrected for time zero): 60.8 µM
pEC50 (A498; curve inflection point): 4.09
pIC50 (SiHa; [1]): < 4.00
GI50 (SiHa; corrected for time zero): 60 µM
pEC50 (SiHa; curve inflection point): 4.39
pIC50 (RL95-2; [1]): 4.68
GI50 (RL95-2; corrected for time zero): 10.4 µM
pEC50 (RL95-2; curve inflection point): 4.72

Reference: PMC6576746, “Rational discovery of dual-indication multi-target PDE/Kinase inhibitor for precision anti-cancer therapy using structural systems pharmacology” (PLoS Computational Biology, 2019)
